Measurements published in publication PMC10667816, “A Cell‐Penetrant Peptide Disrupting the Transcription Factor CP2c Complexes Induces Cancer‐Specific Synthetic Lethality” (Advanced Science, 2023).
Where no end group is shown, it is not given here.

Key:
[1] = test system: Hep3B; assay: Hep3B CDX mouse model; format: in vivo
Procedure: Animal experiments were conducted in accordance with ethical guidelines, and all protocols were approved by the Institutional Animal Care and Use Committee under Hanyang University (approval numbers, 2014‐0016A, 2018‐0049A, 2018‐0207A, and 2019‐0169A), Chung‐Ang University (approval number, 2015‐00022), Chungbuk University (approval number, CBNUA‐1072‐17‐02), and Konkuk University (approval number, KU17130). To establish xenograft mice models, Hep3B, A431, U343, and PC9 cells were subcutaneously injected into the flank of Balb/c nude mice. For the MDA‐MB‐231 (LM1) cell line, it was implanted into the mammary fat pad of immunodeficient mice (NPG mice). Once tumors were successfully established, the animals were randomly divided into a control (vehicle) group and an experimental (drug) group. When the tumor volume reached 100 cubic millimeters, either saline or an appropriate concentration of drugs was administrated into mice via tail vein every 3 or 5 days for appropriate duration. Tumor volume was calculated using the formula of length × width^2)/2. To generate an orthotopic liver cancer mice model, 75 mg kg^−1 (mpk) of DEN was intraperitoneally injected weekly for 3 weeks into C57BL/6 mice, followed by 100 mpk of DEN weekly for the subsequent 3 weeks. After 37 weeks of liver cancer induction, mice received either saline or an appropriate concentration of drugs via the tail vein every 5 days for the designated duration. The in vivo administration amount was determined based on the concentration of ACP52C confirmed at the cellular level, which was 2 µM. Assuming an average mouse weight of 30 grams and considering that ≈5.8% of body weight constitutes blood volume,^[ [49] ^] it was calculated that the blood concentration of ACP52C should be ten times the GI50 concentration in cell culture conditions. […] For ACP52C derivatives, the amount was adjusted to ensure a similar molar quantity of peptide injection, taking their molecular weights into account. For instance, in the case of ACP52CGK, ≈1.67 times the quantity was used compared to ACP52C to achieve an equivalent molar quantity. At the time of sacrifice, major organs and tumors were removed and weighed, and blood was extracted. For histological analysis, major organs and tumors of mice were immediately fixed in 10% formalin neutral buffer solution, dehydrated through a graded series of ethanol treatments, treated with xylene, paraffin embedded, and cut into 4 µm sections. Hematoxylin and eosin (H&E)‐stained tissue sections were analyzed and photographed, and the representative histological images were recorded. Liver nodules in the DEN orthotopic liver cancer model were estimated by measuring the ratio of tumor areas over entire liver tissues in the tissue section using an Image J (version 1.51) software at 40× magnification. Complete blood count (CBC) analysis was conducted using a Hematology analyzer (scil Vet ABC) from the extracted blood.

[2] = test system: murine erythroleukemia (MEL) cells; assay: Erythroid differentiation of MEL cells; format: cell-based; conditions: HMBA‐induced MEL cells, supplementation to the culture
Procedure: Information of the cell lines is listed in Table S1 (Supporting Information), including their origin and culture conditions. All cell lines were cultured at 37 °C, 5% CO2 incubator. MDA‐MB‐231 (LM1), HepG2, Hep3B, and HCT116 cell lines were authenticated with short tandem repeat markers based on ATCC information. All cell lines tested negative for mycoplasma contamination. Transient downregulation of the gene of interest was conducted by siRNA transfection using Lipofectamine 2000 (Thermo Fisher, 11668019) according to the manufacturer's instructions. Information about siRNAs is provided in Table S2 (Supporting Information). Stable cell lines were established by transfecting cells using Effectene reagent (Qiagen, 301425), followed by selection of cell clones in the presence of 1 µg mL^−1 puromycin (Sigma–Aldrich, P8833). The establishment of cell lines was confirmed by WB or RT‐qPCR. For doxycycline‐inducible gene expression regulation, cell lines were incubated in the presence of 1 µg mL^−1 doxycycline (Sigma–Aldrich, D9891) for 2–3 days. To promote sphere formation of the cell lines, each well of the tissue culture dish was coated with 10% poly 2‐hydroxyethyl methacrylate (polyHEMA). An appropriate number of cells per well were seeded in serum‐free DMEM/F12 (HyClone, SH30023.01) supplemented with B27, 20 ng mL^−1 bFGF, and 20 ng mL^−1 EGF. For erythroid terminal differentiation experiments, differentiation was assessed by hemoglobin staining using a 0.2% (w/v) tetramethylbenzidine solution (Sigma–Aldrich, T0440) in 0.6% hydrogen peroxide, 3% acetic acid for 10 min in dark condition. Benzidine‐positive or negative cell numbers were counted under the inverted microscope BX50 (Olympus) at 200 × magnification. […] After each synchronization, cells were fixed at 4‐h intervals for 24 h with ACP52C treatment, and the cell cycle was analyzed by Propidium Iodide (PI) staining or intracellular protein was analyzed by immunofluorescence. […] This development period was repeated four times for one round, after which GI50 concentrations were re‐assessed in each resistant cell line. […]

[3] = molecular target: T1, CP2c (Mus musculus, UniProt Q9ERA0); assay: DNA‐IP assay of CP2c DNA binding; format: biochemical; conditions: 0–3 µM peptide, concentration‐dependent
T1 construct: extracts from iMEL cells (day 2); endogenous in cells; host or cells: nuclear extract of HMBA-induced MEL (iMEL) cells, day 2
Procedure: DNA‐IP assay was performed essentially as described previously.^[ [14] ^] Each of the oligonucleotides was mixed and annealed in the TEN buffer. For the radio‐labeling of the DNA probe, the annealed DNA was incubated with a mixture of dATP, dGTP, dTTP, [α^32P]‐dCTP, and Klenow enzyme in reaction buffer (5 mM NaCl, 1 mM Tris HCl, 1 mM MgCl2, and 0.1 mM DTT) for 30 min at 25 °C, and stopped by incubation with EDTA (10 mM final) for 20 min at 75 °C. The radio‐labeled DNA probe was purified by applying the reaction mixture to ProbeQuant G‐50 micro columns (GE healthcare, GE28‐9034‐08). Whole extracts prepared from transfecting 293T cells or purified GST fused CP2c proteins (wildtype and point mutants) were incubated with a [α^32P]‐labeled DNA probe in binding buffer (4% glycerol, 10 mM Tris‐HCl, pH 7.4, 1 mM DTT, 1 mM EDTA, and 0.1% NP‐40) for 15 min at room temperature. Then 0–3 µM of peptides (Pep #5, Pep #8, Pep #5‐1, Pep #5‐2, and Pep #5‐2C) were added to the DNA‐protein mixture, and the mixtures were incubated for 15 min at room temperature (peptide sequences are listed in Table S3, Supporting Information). For IP, precleared extracts were incubated overnight at 4 °C with 1 µg of the following primary antibodies (CP2c, CP2b, and PIAS1). […] The radioactivity of the eluted probe was measured by scintillation counting.

[4] = intravenous injection at three‐day intervals, Sorafenib orally once daily as positive control

T1 sequence (Q9ERA0 whole entry): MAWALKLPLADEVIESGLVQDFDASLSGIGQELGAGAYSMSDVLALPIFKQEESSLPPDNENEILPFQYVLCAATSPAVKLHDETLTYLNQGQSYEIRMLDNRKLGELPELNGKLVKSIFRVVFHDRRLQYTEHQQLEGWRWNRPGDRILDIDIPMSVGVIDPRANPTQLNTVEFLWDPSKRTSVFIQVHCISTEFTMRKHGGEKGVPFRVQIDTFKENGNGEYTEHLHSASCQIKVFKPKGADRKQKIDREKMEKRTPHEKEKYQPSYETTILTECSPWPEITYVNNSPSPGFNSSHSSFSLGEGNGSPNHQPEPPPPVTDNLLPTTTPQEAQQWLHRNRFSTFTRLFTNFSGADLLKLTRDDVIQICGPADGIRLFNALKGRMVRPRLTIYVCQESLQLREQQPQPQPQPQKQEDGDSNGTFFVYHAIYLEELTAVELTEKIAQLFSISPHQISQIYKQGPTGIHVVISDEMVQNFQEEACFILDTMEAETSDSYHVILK

Row | Substance | anti‐tumor activity [1, 4] | also measured
1 | DHA-GGNYPQRPCRGDKGPDC-NH2 [DHA‐ACP52C, DHA, an unsaturated fatty acid, conjugated at the N‐terminus of ACP52C] | effectively demonstrated anti‐tumor activity | anti‐tumor activity ([1]; administered at five‐day intervals): noticeably higher activity than ACP52C
2 | Ac-HERRESNYPQRPCRGDKGPDC-NH2 [Pep #5C] |  | inhibition of erythroid differentiation [2]: efficiently inhibited erythroid differentiation
3 | Ac-K(E-pal)K-GGNYPQRPCRGDKGPDC-NH2 [ACP52CG, palmitic acid linked to lysine at the N‐terminus of ACP52C] | decrease in anti‐tumor activity, resembling Sorafenib | 
4 | Ac-K(EGFLG-pal)K-GGNYPQRPCRGDKGPDC-NH2 [ACP52CK, ACP52C with enzyme‐cleavable linker GFLG to palmitic acid] | activity similar to that of Sorafenib | 
5 | HERRES [Pep #5‐1] |  | inhibition of DNA binding activity of CP2c [3]: no activity
6 | Ac-NYPQRPGG-K(E-pal)-GGCRGDKGPDC-NH2 [ACP52GK, E‐pal attached via αE COO‐ to lysine between ACP52 and iRGD] | lower anti‐tumor activity compared to ACP52C | 
